Assay results taken from PubChem BioAssay AID328 (DTP/NCI, 2004).
Where “and” joins values, the source holds several entries; their conditions need not be identical. Equal entries are not always repeated. Toxic doses and inconclusive results are not listed. The calls were made as follows: active = survival T/C of 150% or more; inactive = T/C below 125% in these data.

Tested on: BDF1 mice, P388 leukemia ip, median survival T/C
Assay: NCI In Vivo Anticancer Drug Screen. Data for tumor model P388 Leukemia (intraperitoneal) in B6D2F1 (BDF1) mice
Settings: endpoint: median survival time, higher = longer survival
How it was run: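 Transplantable tumour in mice; compound vs vehicle dosing; survival scored; ratio of treated to control reported.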

[1] = dose: 3.12 mg/kg/injection, schedule: Q01DX009 (ip), vehicle: Klucel (hydroxypropylcellulose) (HPC)
[2] = dose: 12.5 mg/kg/injection, schedule: Q01DX009 (ip), vehicle: Klucel (hydroxypropylcellulose) (HPC)
[3] = dose: 25.0 mg/kg/injection, schedule: Q01DX009 (ip), vehicle: Klucel (hydroxypropylcellulose) (HPC)
[4] = dose: 50.0 mg/kg/injection, schedule: Q01DX009 (ip), vehicle: Klucel (hydroxypropylcellulose) (HPC)
[5] = dose: 100.0 mg/kg/injection, schedule: Q01DX009 (ip), vehicle: Klucel (hydroxypropylcellulose) (HPC)
[6] = dose: 100.0 mg/kg/injection, schedule: Q01DX009 (ip), vehicle: saline with Tween-80
[7] = dose: 200.0 mg/kg/injection, schedule: Q01DX009 (ip), vehicle: saline with Tween-80
[8] = dose: 400.0 mg/kg/injection, schedule: Q01DX009 (ip), vehicle: saline with Tween-80
[9] = dose: 50.0 mg/kg/injection, schedule: Q04DX003 (ip), vehicle: saline
[10] = dose: 100.0 mg/kg/injection, schedule: Q04DX003 (ip), vehicle: saline
[11] = dose: 200.0 mg/kg/injection, schedule: Q04DX003 (ip), vehicle: saline
[12] = dose: 50.0 mg/kg/injection, schedule: Q01DX009 (ip), vehicle: saline with Tween-80
[13] = dose: 100.0 mg/kg/injection, schedule: Q04DX003 (ip), vehicle: saline with Tween-80
[14] = dose: 400.0 mg/kg/injection, schedule: Q04DX003 (ip), vehicle: saline with Tween-80
[15] = dose: 100.0 mg/kg/injection, schedule: Q04DX003 (ip), vehicle: Klucel (hydroxypropylcellulose) (HPC)
[16] = dose: 50.0 mg/kg/injection, schedule: Q01DX009 (ip), vehicle: saline
[17] = dose: 100.0 mg/kg/injection, schedule: Q01DX009 (ip), vehicle: saline
[18] = dose: 200.0 mg/kg/injection, schedule: Q01DX009 (ip), vehicle: saline
[19] = dose: 200.0 mg/kg/injection, schedule: Q01DX009 (ip), vehicle: Klucel (hydroxypropylcellulose) (HPC)
[20] = dose: 200.0 mg/kg/injection, schedule: Q04DX003 (ip), vehicle: Klucel (hydroxypropylcellulose) (HPC)
[21] = dose: 400.0 mg/kg/injection, schedule: Q04DX003 (ip), vehicle: Klucel (hydroxypropylcellulose) (HPC)
[22] = dose: 400.0 mg/kg/injection, schedule: Q01DX009 (ip), vehicle: Klucel (hydroxypropylcellulose) (HPC)
[23] = dose: 50.0 mg/kg/injection, schedule: Q04DX003 (ip), vehicle: saline with Tween-80
[24] = dose: 200.0 mg/kg/injection, schedule: Q04DX003 (ip), vehicle: saline with Tween-80

Measured: T/C

COc1ccc(C(=O)/C=C/c2ccccc2)c(O)c1CC=C(C)C (tested in a mixture with another compound)
inactive: [1] 90 % of control | dose: 6.25 mg/kg/injection, schedule: Q01DX009 (ip), vehicle: Klucel (hydroxypropylcellulose) (HPC) 102 % of control | [2] 107 % of control | [3] 109 % of control | [4] 91 % of control | [5] 92 % of control

CN(C)CC(C(=O)c1ccc(Br)cc1)C(Br)c1ccccc1 (centres undefined)
inactive: dose: 0.78 mg/kg/injection, schedule: Q01DX009 (ip), vehicle: Klucel (hydroxypropylcellulose) (HPC) 100 % of control | dose: 1.56 mg/kg/injection, schedule: Q01DX009 (ip), vehicle: Klucel (hydroxypropylcellulose) (HPC) 95 % of control | [1] 108 % of control | dose: 4.6 mg/kg/injection, schedule: Q01DX009 (ip), vehicle: saline 113 % of control | dose: 7.0 mg/kg/injection, schedule: Q01DX009 (ip), vehicle: saline 118 % of control | dose: 10.0 mg/kg/injection, schedule: Q01DX009 (ip), vehicle: saline 109 % of control | dose: 14.0 mg/kg/injection, schedule: Q01DX009 (ip), vehicle: saline 108 % of control | dose: 16.25 mg/kg/injection, schedule: Q04DX003 (ip), vehicle: saline 100 % of control | dose: 22.0 mg/kg/injection, schedule: Q01DX009 (ip), vehicle: saline 108 % of control | dose: 32.5 mg/kg/injection, schedule: Q04DX003 (ip), vehicle: saline 105 % of control | dose: 65.0 mg/kg/injection, schedule: Q04DX003 (ip), vehicle: saline 110 % of control

CCCCCCCCCCC(O)CN1CCN(c2ccc(C)cc2)CC1 (centres undefined)
inactive: [6] 100 % of control | dose: 100.0 mg/kg/injection, schedule: Q04DX003 (ip), vehicle: saline sonified 100 % of control | dose: 176.0 mg/kg/injection, schedule: Q04DX003 (ip), vehicle: saline with Tween-80 90 % of control | [7] 100 % of control | dose: 200.0 mg/kg/injection, schedule: Q04DX003 (ip), vehicle: saline sonified 115 % of control | dose: 264.0 mg/kg/injection, schedule: Q04DX003 (ip), vehicle: saline with Tween-80 90 % of control | [8] 90 % of control

CN(C)C(=S)S
inactive: [9] 103 % of control | [10] 103 % of control | [11] 105 % of control | dose: 400.0 mg/kg/injection, schedule: Q04DX003 (ip), vehicle: saline 117 % of control

c1ccc2c(c1)-c1cccc3cccc-2c13
inactive: [12] 98 % of control | [6] 102 % of control | [7] 100 % of control

C[C@]12CC[C@H]3[C@@H](CCC4=CC(=O)CC[C@@H]43)[C@@H]1CC[C@@H]2OC(=O)CCc1ccccc1
inactive: [6] 100 % of control | [13] 86 % of control | [7] 100 % of control | [8] 90 % of control | [14] 86 % of control

COC(=O)/C=C1/C(=O)N(C)c2ccccc21
inactive: [12] 122 % of control | [6] 98 % of control | [7] 104 % of control

COc1cc2c(cc1OC)-c1cc3cc(OC)c(OC)cc3c(C)[n+]1CC2
inactive: [2] 106 % of control | [3] 106 % of control | [4] 113 % of control

O=S(=O)(Nc1ccc(C(F)(F)F)cc1)c1ccc(C(F)(F)F)cc1
inactive: dose: 50.0 mg/kg/injection, schedule: Q04DX003 (ip), vehicle: Klucel (hydroxypropylcellulose) (HPC) 90 % of control | [15] 90 % of control

CCOP(=O)(OCC)OCCCN(CC)CC
inactive: dose: 25.0 mg/kg/injection, schedule: Q01DX009 (ip), vehicle: saline 118 % of control | [16] 114 % of control | [9] 100 % of control | [17] 100 % of control | [10] 107 % of control | [18] 89 % of control | [11] 110 % of control | dose: 300.0 mg/kg/injection, schedule: Q04DX003 (ip), vehicle: saline 105 % of control

CCOC(=S)SCC(=O)Nc1ccc(I)cc1
inactive: dose: 15.0 mg/kg/injection, schedule: Q01DX009 (ip), vehicle: saline with Tween-80 93 % of control | dose: 30.0 mg/kg/injection, schedule: Q01DX009 (ip), vehicle: saline with Tween-80 95 % of control | dose: 60.0 mg/kg/injection, schedule: Q01DX009 (ip), vehicle: saline with Tween-80 98 % of control

CCOC(=O)Nc1ccc2c(c1)/C(=N\NC(N)=S)c1ccccc1-2
inactive: dose: 0.37 mg/kg/injection, schedule: Q01DX009 (ip), vehicle: gum acacia 120 % of control | dose: 0.75 mg/kg/injection, schedule: Q01DX009 (ip), vehicle: gum acacia 108 % of control | dose: 1.5 mg/kg/injection, schedule: Q01DX009 (ip), vehicle: gum acacia 96 % of control and 108 % of control | dose: 3.0 mg/kg/injection, schedule: Q04DX003 (ip), vehicle: gum acacia 92 % of control | dose: 6.0 mg/kg/injection, schedule: Q04DX003 (ip), vehicle: gum acacia 100 % of control | [4] 86 % of control | [5] 90 % of control | [15] 86 % of control | dose: 200.0 mg/kg/injection, schedule: Q01DX001 (ip), vehicle: Klucel (hydroxypropylcellulose) (HPC) 86 % of control | [19] 100 % of control | [20] 100 % of control | [21] 109 % of control | dose: 400.0 mg/kg/injection, schedule: Q04DX003 (ip), vehicle: gum acacia 100 % of control

CCOC(=O)C1CCC(C(=O)OCC)N1c1ccc(C=O)cc1 (centres undefined)
inactive: [5] 122 % of control | [15] 105 % of control | [19] 105 % of control | [20] 100 % of control | [22] 122 % of control | [21] 100 % of control

COc1ccc(OC)c(/C=C/[N+](=O)[O-])c1
inactive: [2] 108 % of control | [3] 113 % of control and 120 % of control | [4] 113 % of control | [5] 116 % of control

CCOC(=O)C(Br)C(Br)c1ccccc1 (centres undefined)
inactive: dose: 50.0 mg/kg/injection, schedule: Q01DX001 (ip), vehicle: saline 100 % of control | [23] 91 % of control | dose: 100.0 mg/kg/injection, schedule: Q01DX001 (ip), vehicle: saline 90 % of control | [13] 108 % of control | dose: 200.0 mg/kg/injection, schedule: Q01DX001 (ip), vehicle: saline 118 % of control | [24] 112 % of control

O=C1OC(c2ccccc2)=C/C1=C/c1ccc([N+](=O)[O-])cc1
inactive: dose: 25.0 mg/kg/injection, schedule: Q01DX009 (ip), vehicle: saline with Tween-80 104 % of control | [12] 90 % of control | [23] 105 % of control | [6] 100 % of control | [13] 109 % of control | [7] 92 % of control | [24] 99 % of control and 104 % of control | dose: 300.0 mg/kg/injection, schedule: Q04DX003 (ip), vehicle: saline with Tween-80 87 % of control | [8] 92 % of control | [14] 96 % of control | dose: 600.0 mg/kg/injection, schedule: Q04DX003 (ip), vehicle: saline with Tween-80 91 % of control

CCC(=O)OC1CC2C3CCC4=CC(=O)CCC4(C)C3CCC2(C)C1OC(=O)CC (centres undefined)
inactive: [15] 100 % of control | [19] 109 % of control | [20] 104 % of control | [22] 91 % of control and 122 % of control | [21] 104 % of control

N=C(N)SCc1cccc([N+](=O)[O-])c1
inactive: [2] 97 % of control | [3] 103 % of control | [4] 110 % of control

COc1ccc(CC(=O)NCCc2ccc3cc(OC)c(OC)cc3c2)cc1OC
inactive: [6] 95 % of control | [7] 95 % of control | [8] 91 % of control

COc1ccc(C(=O)N(N)C2CCCCC2)cc1
inactive: [16] 105 % of control | [17] 105 % of control | [18] 100 % of control
